Measurements published in patent US7723091B2 (priority 1999, dated 2010).
Where two headings read alike, the source gives them in different places. Marks after values point to notes of the source that are not given here.

Assays:
[1] = test system: E. acervulina and Clostridium perfringens; type: in vivo, broiler chickens
[2] = test system: E. acervulina, E. maxima, and C. perfringens; type: in vivo, broiler chickens; details: Trial III; for Feed Consumption Day 0-21 / Feed Consumption Day 8-21 / Feed Conversion Day 0-21 / Feed Conversion Day 8-21 / Lesion Scores E. acer. / Lesion Scores E. max. / Live Wt. Day 21 / Weight AF/G Treatment (weight adjusted feed conversion) / Weight Gain Day 0-21 / Weight Gain Day 8-21: infected
[3] = test system: E. acervulina, E. maxima and Clostridium perfringens; type: in vivo, broiler chickens; details: Trial IV; infected; PI-PLC 30 U/lb, Man. 121 MU/ton, BMD 50 g/ton, salinomycin 60 g/ton
C. parvum = assay: Anti-cryptosporidial activity in MDCK cell cultures (chemiluminescence immunoassay); type: cell-based, Cryptosporidium parvum
Description: The enzyme PI-PLC was evaluated for anti-cryptosporidial activity and toxicity at concentrations ranging from 0.001-30 U/ml were performed using 4-day-old Madin-Darby canine kidney (MDCK) cells. Enzyme units were defined as by the method in Example 4 but measured as in Example 9. The preparation of enzyme used was from recombinant Bacillus megaterium. Treatment was initiated 3 hours after infection and continued through 48 hours.
Chemiluminescence Immunoassay. Before infection, oocysts were washed and resuspended in DMEM base with 0.75% sodium taurocholate and incubated for 10 min at 37° C. (You et al., FEMS Microbiol. Letters 136:251-256, 1996; You et al., J. Antimicrobial. Chemother. 41:293-296, 1998). The excystation mixture was diluted with Ultraculture medium, promptly dispensed in plates containing MDCK cells, at 100% confluence, and maintained in Ultraculture medium for 4 days. The inoculum was incubated with the cells for3 h before washing with PBS and replaced with fresh Ultraculture medium with or without test enzyme. Plates were incubated at 37° C., in a 5% CO2 air atmosphere for 48 h. Cultures were washed with PBS and fixed with Bouin's solution.
The fixed plates were washed with TBST buffer (20 mM Tris-HCl (pH 7.5), 150 mM NaCl, 0.05% Tween-20) and blocked with 1% BSA-TBST (TBST buffer containing 1% bovine serum albumin) for 30 min at 25° C. with gentle shaking. Rabbit anti-Cryptosporidium parvum sera (1:200 dilution) was applied to the plates and incubated for 1 hr. After washing with TBST, the samples were sequentially incubated with biotin-labeled goat anti-rabbit IgG and horseradish peroxidase-labeled streptavidin (working dilution, 1:1000, KPL Inc., Gaithersburg, Md.). Enhanced Luminol (4-iodophenol and hydrogen peroxide, Aldrich Chemical Co. Inc., Milwaukee, Wis.) was used as a substrate. The plates were read with an ML3000 Luminometer (Dynatech Lab., Chantilly, Va.) and the relative light units (RLU) were determined. Means of RLU were calculated from 4 replicate wells and all experiments were repeated at least twice.
A second set of experiments were performed to evaluate enzyme specificity. Sporozoites were treated with the enzyme at various concentrations for 45 min and briefly washed. The treated sporozoites were then allowed to infect untreated host cells and develop and reproduce for 48 hours. In a separate experiment, host cells were incubated with the enzyme at various concentrations, washed and infected with untreated sporozoites. As shown below (Table 14), treatment of either sporozoite or host cells with the enzyme results in partial inhibition. A dose dependent inhibition was not observed in this concentration range. This may be due to the short incubation period of the enzyme with host or parasite cells (45 min) or partial or incomplete cleavage of host/parasite receptors. Additionally, other host/parasite receptors are probably involved in infection and account for the growth observed in the host cells.

[4] = Trial II T4 (Rec), T7 (Wt), infected, 10 U/lb
[5] = Trial II T9, no infection challenge, 90 U/lb
[6] = PI-PLC 10 U/lb (T5; T7 with mannanase 100 MU/ton)
[7] = PI-PLC 30 U/lb (T6; T8 with mannanase 100 MU/ton; T10 with medication)
[8] = Host cells treated before infection (washed), 0.01 Unit/ml
[9] = Host cells treated before infection (washed), 0.03 Unit/ml
[10] = Host cells treated before infection (washed), 0.1 Unit/ml
[11] = Host cells treated before infection (washed), 0.3 Unit/ml
[12] = Host cells treated before infection (washed), 1 Unit/ml
[13] = Sporozoite treated before infection (45 min, washed), 0.01 Unit/ml
[14] = Sporozoite treated before infection (45 min, washed), 0.03 Unit/ml
[15] = Sporozoite treated before infection (45 min, washed), 0.1 Unit/ml
[16] = Sporozoite treated before infection (45 min, washed), 0.3 Unit/ml
[17] = Sporozoite treated before infection (45 min, washed), 1 Unit/ml
[18] = enzyme added 3 h post infection, 48 h, 0.01 Unit/mL
[19] = enzyme added 3 h post infection, 48 h, 0.03 Unit/mL
[20] = enzyme added 3 h post infection, 48 h, 0.1 Unit/mL
[21] = enzyme added 3 h post infection, 48 h, 0.3 Unit/mL
[22] = enzyme added 3 h post infection, 48 h, 1 Unit/mL

phosphatidylinositol specific phospholipase C [Recombinant PI-PLC]
8-21 Day Feed Conversion (Corrected) ([1]; Trial II T3, infected, 3 U/lb): 1.702
8-21 Day Weight Gain ([1]; Trial II T3, infected, 3 U/lb): 323.24
Average Intestinal Lesion Score ([1]; Trial II T3, infected, 3 U/lb): 1.120
8-21 Day Feed Conversion (Corrected) [1, 4]: 1.732
8-21 Day Weight Gain [1, 4]: 324.78
Average Intestinal Lesion Score [1, 4]: 1.133
8-21 Day Feed Conversion (Corrected) ([1]; Trial II T5, infected, 30 U/lb): 1.699
8-21 Day Weight Gain ([1]; Trial II T5, infected, 30 U/lb): 320.64
Average Intestinal Lesion Score ([1]; Trial II T5, infected, 30 U/lb): 0.842
8-21 Day Feed Conversion (Corrected) ([1]; Trial II T6, infected, 90 U/lb): 1.739
8-21 Day Weight Gain ([1]; Trial II T6, infected, 90 U/lb): 328.29
Average Intestinal Lesion Score ([1]; Trial II T6, infected, 90 U/lb): 0.808
8-21 Day Feed Conversion (Corrected) [1, 5]: 1.650
8-21 Day Weight Gain [1, 5]: 338.8
Average Intestinal Lesion Score [1, 5]: 0.847
effect of varying concentrations on intestinal lesion score, feed conversion and weight gain ([1]; Trial II, T3-T6 (3-90 U/lb)): dose-dependent effect on lowering the intestinal lesion score and feed conversion (T3-T6) and increasing weight gain
improvement in AF/G worsening present in the infected control (T3 v. T1) ([2]; infected birds, mannanase 100 MU per ton, PI-PLC in the feed): 33-41%
Feed Consumption Day 0-21 [2, 6]: 10.456^cd
Feed Consumption Day 8-21 [2, 6]: 8.228^abc
Feed Conversion Day 0-21 [2, 6]: 1.560^bc
Feed Conversion Day 8-21 [2, 6]: 1.591b^c
Lesion Scores E. acer. [2, 6]: 1.34^a
Lesion Scores E. max. [2, 6]: 1.19^bc
Live Wt. Day 21 [2, 6]: 0.635^c
Weight AF/G Treatment (weight adjusted feed conversion) [2, 6]: 1.512
Weight Gain Day 0-21 [2, 6]: 0.594^c
Weight Gain Day 8-21 [2, 6]: 0.477^b
Feed Consumption Day 0-21 [2, 7]: 10.266^d
Feed Consumption Day 8-21 [2, 7]: 7.982^c
Feed Conversion Day 0-21 [2, 7]: 1.572^b
Feed Conversion Day 8-21 [2, 7]: 1.621^ab
Lesion Scores E. acer. [2, 7]: 1.16^ab
Lesion Scores E. max. [2, 7]: 1.13^cd
Live Wt. Day 21 [2, 7]: 0.638^c
Weight AF/G Treatment (weight adjusted feed conversion) [2, 7]: 1.526
Weight Gain Day 0-21 [2, 7]: 0.597^c
Weight Gain Day 8-21 [2, 7]: 0.483^b
Feed Conversion Day 0-21 [3]: 1.701
Feed Conversion Day 8-21 [3]: 1.778
Lesion Score E. acer. Upper [3]: 2.25
Lesion Score E. max. Middle [3]: 1.50
Live Weight Day 21 [3]: 0.486
Weight Gain Day 0-21 [3]: 0.451
Weight Gain Day 8-21 [3]: 0.347
Mean Number of Cryptosporidium per microtiter plate well (C. parvum; [8]): 543.85
Percent Inhibition (C. parvum; [8]): 56.84%
Mean Number of Cryptosporidium per microtiter plate well (C. parvum; [9]): 522.66
Percent Inhibition (C. parvum; [9]): 58.53%
Mean Number of Cryptosporidium per microtiter plate well (C. parvum; [10]): 455.88
Percent Inhibition (C. parvum; [10]): 63.82%
Mean Number of Cryptosporidium per microtiter plate well (C. parvum; [11]): 629.24
Percent Inhibition (C. parvum; [11]): 50.07%
Mean Number of Cryptosporidium per microtiter plate well (C. parvum; [12]): 393.64
Percent Inhibition (C. parvum; [12]): 68.76%
Mean Number of Cryptosporidium per microtiter plate well (C. parvum; [13]): 542.15
Percent Inhibition (C. parvum; [13]): 56.98%
Mean Number of Cryptosporidium per microtiter plate well (C. parvum; [14]): 527.59
Percent Inhibition (C. parvum; [14]): 58.13%
Mean Number of Cryptosporidium per microtiter plate well (C. parvum; [15]): 536.80
Percent Inhibition (C. parvum; [15]): 57.40%
Mean Number of Cryptosporidium per microtiter plate well (C. parvum; [16]): 433.04
Percent Inhibition (C. parvum; [16]): 65.64%
Mean Number of Cryptosporidium per microtiter plate well (C. parvum; [17]): 412.40
Percent Inhibition (C. parvum; [17]): 67.27%
inhibition (C. parvum; at a concentration of 0.1 U/mL (FIG. 1), enzyme added 3 h after infection for 48 hours): Approximately 50%
concentration range with anti-cryptosporidial activity in vitro (C. parvum; enzyme added 3 h after infection for 48 hours): 0.01-1 U/mL
Mean Number of Cryptosporidium per microtiter plate well (C. parvum; [18]): 1167.78
Percent Inhibition (C. parvum; [18]): 7.33%
Mean Number of Cryptosporidium per microtiter plate well (C. parvum; [19]): 912.15
Percent Inhibition (C. parvum; [19]): 27.62%
Mean Number of Cryptosporidium per microtiter plate well (C. parvum; [20]): 595.53
Percent Inhibition (C. parvum; [20]): 52.74%
Mean Number of Cryptosporidium per microtiter plate well (C. parvum; [21]): 286.5
Percent Inhibition (C. parvum; [21]): 77.26%
Mean Number of Cryptosporidium per microtiter plate well (C. parvum; [22]): 285.28
Percent Inhibition (C. parvum; [22]): 77.36%
